The text below walks through data of ChEMBL document CHEMBL1201862, “PubChem BioAssay data set” (2004).

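Following 48 hours of exposure in 96-well plates, responses at five concentrations were used to interpolate endpoints linearly. The concentration for 50% growth inhibition is given as GI50.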 Active and inactive are the calls of the source. No stated cut-off is given here; in the data, active = GI50 up to about 1.1 µM and inactive = higher. Some results are limits rather than exact numbers.

Holding throughout (assay): NCI-60 cell line screen, 48 h
For test [1], the system named is KM-20L2.
Test [2] relates to LXFL 529.
In test [3] the test system is DMS-273.
The test system of test [4] is M19-MEL.
Test [5] concerns DMS-114.
The test system of test [6] is HOP-18.
Test [7] deals with XF498.
Test [8] deals with DLD-1.
The test system of test [9] is RXF 631.

Take `Cc1c(/C=C2\CC/C(=C\c3[nH]c(C(=O)OC(C)(C)C)c(C)c3C)C2=O)[nH]c(C(=O)OC(C)(C)C)c1C`: the GI50 in test [1], in test [2], in [3], in [4], in test [5] and in [6] was > 100 µM (inactive) in each case. For the same compound, the GI50 in [7] and in test [8] was > 100 µM (inactive) in each case.

As to `COC1(OC)CC2C(=O)N(Cc3ccccc3)C1C(S(=O)(=O)c1ccccc1)C2S(=O)(=O)c1ccccc1` (stereo not given), the GI50 in test [1] is 17.4 µM (inactive); in [2] it was 3.48 µM (inactive); in test [3], 14.6 µM (inactive); in test [4], 11.1 µM (inactive); in test [5] it was 3.7 µM (inactive); in test [6], 17.2 µM (inactive). The GI50 in test [9] was 16.7 µM (inactive); in test [8], 3.52 µM (inactive).

With `c1ccc2c(CNCCCCCCCCCCCCNCc3cccc4ccccc34)cccc2c1`, the GI50 in test [1] was 1.84 µM (inactive); in test [2] it was 1.83 µM (inactive); in test [3], 91.8 µM (inactive); in [4], 1.81 µM (inactive); in [6], 2.84 µM (inactive); in test [7] it was 1.69 µM (inactive). Besides, the GI50 in [8] is 1.6 µM (inactive).

For the compound `CC1(C)CC(c2c[nH]c3ccccc23)=CC2=Nc3ccccc3C21O` (stereo not given), the GI50 was > 100 µM (inactive) in test [1]; 47.4 µM (inactive) in test [2]; > 100 µM (inactive) in test [3]; > 100 µM (inactive) in test [4]; > 100 µM (inactive) in test [5]; 29.2 µM (inactive) in test [7]. For the same compound, the GI50 in test [8] was > 100 µM (inactive).

On to `COC(OC)c1cccc2c1C(=O)CCC1(CC2)OCCCCO1`, for which the GI50 in [1], in test [2], in test [3], in test [4], in [5] and in test [6] was > 100 µM (inactive) each time. The GI50 in test [8] was > 100 µM (inactive).

`CC(=O)NNc1nc(C)c(C(=O)NNC(=O)C(=O)Nc2ccc(Cl)cc2Cl)s1`: the GI50 is 40.1 µM (inactive) in [1]; 29.4 µM (inactive) in test [2]; 38.4 µM (inactive) in [4]; 33.2 µM (inactive) in [5]; 30.1 µM (inactive) in test [7]; 38.4 µM (inactive) in test [8].

In the case of `Cc1c(C(=O)C/C(=N/NC(=O)c2ccccc2O)C(=O)Nc2ccccc2C(C)C)[n+]([O-])c2ccccc2[n+]1[O-]`, the GI50 was 39.7 µM (inactive) in test [1]; 25.1 µM (inactive) in [2]; 31.8 µM (inactive) in test [3]; 46.5 µM (inactive) in test [4]; 23.1 µM (inactive) in test [5]; > 100 µM (inactive) in test [6]. Also, the GI50 in [7] is > 100 µM (inactive); in test [8] it was 31.8 µM (inactive).

Turning to `COc1cc([C@@H]2c3cc4c(cc3[C@@H](NC(=O)c3ccc(OC(C)=O)cc3)C3COC(=O)[C@@H]32)OCO4)cc(OC)c1O` (stereo not given in full), the GI50 in [1] was 2.13 µM (inactive); in test [2] it was 9.62 µM (inactive); in [3] it was 0.359 µM (active); in test [4], 8.71 µM (inactive); in [5], 1.2 µM (inactive); in [6] it was > 100 µM (inactive). The values for the GI50 in test [7], in [9] and in test [8] were 0.813 µM (active), 1.76 µM (inactive) and 2.96 µM (inactive), respectively.

In the case of `Cc1cccc(N2C(=O)C(=O)C(c3nc4ccccc4s3)C(=O)C2=O)c1C`, the GI50 in test [1], in [2], in test [3], in test [4], in [5] and in test [6] was > 100 µM (inactive) in each case. For the same compound, the GI50 in test [9] and in test [8] was > 100 µM (inactive) in each case.

With `COc1cc2cc3c4cc(OC)c(OC)cc4cc[n+]3c(C)c2cc1OC.O=C([O-])CS(=O)(=O)O`, the GI50 in [1] is > 100 µM (inactive); in [2], 10.8 µM (inactive); in test [3] it was 63.8 µM (inactive); in test [4], 69 µM (inactive); in test [5], 3.34 µM (inactive); in test [6], > 100 µM (inactive). In addition, the figures for the GI50 in test [7] and in [8] were 36.4 µM (inactive) and > 100 µM (inactive), respectively.

As to `O=C1NC(=O)C2C(=O)NC(=O)C1C2c1c(Cl)cccc1Cl` (stereo not given), the GI50 in [1] is > 49.5 µM (inactive); in test [2], > 100 µM (inactive); in test [3], > 42.7 µM (inactive); in [5], > 38.4 µM (inactive); in test [6], > 100 µM (inactive); in [7] it was > 100 µM (inactive). In addition, the GI50 in test [9] is > 100 µM (inactive); in [8] it was > 43.3 µM (inactive).

On to `Cc1c2ccnc(O)c2cc2c(=O)c3cnccc3[nH]c12`, for which the GI50 in test [1], in test [2], in [3], in [4], in test [5] and in test [6] was > 100 µM (inactive) in each case. The GI50 in test [8] was > 100 µM (inactive).

For the compound `O=C1C(CN2CCCCC2)CCCC1CN1CCCCC1` (stereo not given), the GI50 is 14.4 µM (inactive) in test [1]; 15 µM (inactive) in [2]; 43.2 µM (inactive) in test [3]; 17.2 µM (inactive) in [6]; 21.2 µM (inactive) in test [7]; 10.1 µM (inactive) in test [8].

With `CC(=O)/C(=N\O)C(=O)Nc1ccc(Cl)cc1Cl`, the GI50 was > 100 µM (inactive) in test [1]; > 100 µM (inactive) in [2]; > 100 µM (inactive) in test [3]; > 100 µM (inactive) in [4]; > 100 µM (inactive) in [5]; 43.1 µM (inactive) in test [6]. For the same compound, the GI50 in test [8] is > 100 µM (inactive).

In the case of `O=C(Nc1ccccc1)Oc1ccccc1C1CCCCC1`, the GI50 in [2] is 22.5 µM (inactive); in test [3], 15.2 µM (inactive); in test [4] it was 16 µM (inactive); in test [5], 12 µM (inactive); in [6] it was 29.3 µM (inactive); in test [7], 19 µM (inactive). Besides, in [8], the GI50 is 13.9 µM (inactive).

As to `CN(C)CC1CCCC/C1=N\OC(=O)c1ccccc1` (stereo not given), the GI50 in [1], in [2], in test [3], in test [4], in test [5] and in [6] was > 100 µM (inactive) each time. Moreover, the GI50 in [7], in test [9] and in [8] was > 100 µM (inactive) throughout.
